Read-outs that look alike come from different tables or passages of the source.
Columns and labels:
[1] = system: SARS-CoV; settings: for EC50: read-out: SARS-CoV EC50
[2] = in vitro; settings: pig
[3] = system: SARS-CoV; assay: microbe, parasite or virus in culture; settings: Severe acute respiratory syndrome coronavirus, 120 h, read-out: SARS-CoV EC50
[4] = in vitro; settings: African monkey
[5] = system: TGEV; assay: microbe, parasite or virus in culture; type: cell-based, strain purdue112 (porcine coronavirus); settings: read-out: TGEV EC50
[6] = system: VeroE6-EGFP cells
[7] = system: LLC-PK1-EGFP cells

Compound | SI SARS CC50/EC50 [1] | CC50 [2] [µM] | EC50 [3] [µM] | CC50 [4] [µM] | EC50 ([5]; Alphacoronavirus 1, 120 h) [µM] | CC50 [6] [µM] | CC50 [7] [µM] | EC50 [1] [µM] | EC50 [5] [µM]
O=C(O)C1=CC(=C(c2ccc(O)c(C(=O)O)c2)c2ccc(O)c(C(=O)O)c2)C=CC1=O [ATA, aurintricarboxylic acid] | <1.00 | 56.9 | > 9.19 | 9.19 | > 56.9 | – | – | – | –
Lopinavir/ritonavir | – | – | – | – | – | > 100 | > 100 | – | –
NC(=O)c1ncn([C@@H]2O[C@H](CO)[C@@H](O)[C@H]2O)n1 [Ribavirin] | – | 20.2 | > 100 | > 100 | > 20.2 | – | – | – | –
CC1(C)[C@@H](O[C@H]2O[C@H](C(=O)O)[C@@H](O)[C@H](O)[C@H]2O[C@@H]2O[C@H](C(=O)O)[C@@H](O)[C@H](O)[C@H]2O)CC[C@]2(C)[C@H]3C(=O)C=C4[C@@H]5C[C@@](C)(C(=O)O)CC[C@]5(C)CC[C@@]4(C)[C@]3(C)CC[C@@H]12 [Glycirrhizin] | – | > 100 | > 100 | > 100 | > 100 | – | – | – | –
Cc1cn([C@H]2C[C@H](N=[N+]=[N-])[C@@H](CO)O2)c(=O)[nH]c1=O [AZT] | – | – | – | – | – | > 100 | > 100 | > 100 | > 100
dextran sulfate 5000 [DS5000] | – | – | – | – | – | > 100 | > 100 | > 100 | > 100
S-Nitroso-N-acetylpenicillamine | <1.00 | – | – | – | – | 530 | 312 | > 530 | > 312

Reference: paper PMC7112772 (Journal of Virological Methods, 2005)
